Experimental data: patent US20080207731A1, “3-(3-INDOLYL) PROPIONIC ACID CALCIUM SALT AND METHOD OF MAKING 3-(3-INDOLYL) PROPIONIC ACID FREE ACID THEREFROM” (Intellect Neurosciences, Inc., priority 2006, published 2008)
Where a name gives a salt, the structure may show the parent alone.

Tests used:
[1] = solubility in water of 3-IPA salts; format: physicochemical
cultured neurons = conditions: background statement; cited from earlier work

Structure (SMILES)	solubility in water ([1]; compared to the calcium salts of other acids present in the reaction mixture (e.g., acrylic acid or acetic acid))	solubility ([1]; compared to the free acid form of 3-IPA)	protection from toxicity of the Aβ peptide (cultured neurons)
O=C(O)CCc1c[nH]c2ccccc12 [3-IPA calcium, calcium salt of 3-(3-indolyl)propionic acid]	much less soluble in water	low solubility	–
O=C(O)CCc1c[nH]c2ccccc12 [3-IPA, 3-(3-indolyl)propionic acid]	–	–	protect cultured neurons from the toxicity of the Aβ peptide
